Reference: US20190358264A1, “METHODS OF TREATING DISEASES ASSOCIATED WITH ILC2 CELLS” (Limm Therapeutics, SA, priority 2016, published 2019)

Tested on: ILC2s
Assay: In vitro activation of purified ILC2s, type 2 cytokine protein by intracellular staining
Assay type: cell-based, mouse
Description: FIGS. 10a-10d: FIG. 10a, Ki67 expression in intestinal ILC2s after an overnight in vitro stimulation with NmU23 alone (100 ng/mL, Phoenix Pharmaceutical) or NmU23 together with the survival cytokines Interleukin (IL)-2 and/or IL-7 (10 ng/mL). FIG. 10b, Ki67 expression in intestine ILC2 after in vivo administration of NmU23 (4 g/day during 2 days). n=5. FIG. 10c, ILC2-derived type 2 cytokines (IL-5, IL-13 and Amphiregulin (Areg)) in sorted intestine ILC2 after an overnight stimulation with NmU23, mouse recombinant IL-25 or IL-33 (R&D) (10, 50 and 100 ng/mL). Negative control: unstimulated ILC2, Positive control: ILC2 activated with phorbol 12-myristate 13-acetate (PMA, 50 ng/ml) plus ionomycin (500 ng/ml). n=3. FIG. 10d, Dot plots representative of the cytokine production with increasing dose of NmU23, rIL-25 and rIL-33. *P<0.05; **P<0.01; ***P<0.001; ****P<0.0001; ns not significant.
For in vitro experiments, purified lung and small intestine lamina propria ILC2s were FBS starved for 2 hours prior to stimulation and cultured in complete RPMI (supplemented with 10% foetal bovine serum (FBS), 1% hepes, sodium pyruvate, glutamine, streptomycin and penicillin) at 37° C. For mRNA analysis, ILC2s were stimulated overnight with recombinant mouse Neuromedin U 23 peptide (NmU23, 100 ng/mL; Phoenix pharmaceuticals). Both NmU23-stimulated and control ILC2s were cultured in the presence of IL-2 and IL-7 (10 ng/mL; Peprotech). ILC2s were lysed using RLT buffer (Qiagen). For cytokine protein analysis, ILC2s were incubated exclusively with brefeldin A (eBioscience) for 12 hours prior to intracellular staining. For in vivo experiments, B6 mice were injected intraperitoneal with NmU23 peptide (2 g/day) during Nippostrongylus brasiliensis infection or with a single dose of NmU23 (20 μg) and analyzed after 8 hours. Control mice were treated with PBS alone.
Intracellular staining was performed using IC fixation/permeabilization kit (eBioscience). Flow cytometry analysis and cell sorting were performed using BD LSRFORTESSA and BD FACSAria flow cytometers (BD Biosciences). […]

Neuromedin U (FKAEYQSPSVGQSKGYFLFRPRN) [NmU]
up-regulation of innate type 2 cytokines relative to PMA-ionomycin positive control (PMA 50 ng/ml plus ionomycin 500 ng/ml, sorted intestine ILC2, overnight): comparable to the effects observed with PMA-ionomycin activation | expression of innate IL-5 and IL-13 compared to IL-33 and IL-25 (sorted intestine ILC2, overnight, 10, 50 and 100 ng/mL (FIGS. 10c,10d)): prompt, and very robust expression
